How the values were obtained:
mTOR (FRAP1) = mTOR (FRAP1) (Homo sapiens, UniProt P42345); assay: SelectScreen Profiling, Z'-LYTE kinase assay, mTOR (FRAP1); type: biochemical; conditions: 0.1 μM compound, ATP at Km, read-out: mTOR inh% @0.1 μM
Text: Some of the example compounds were submitted to Life Technologies Corporation SelectScreen® Profiling Service to test their potency in inhibiting the kinase catalytic activities of mTOR, PI3Kα, VEGF2, FGFR1, HER1 (EGFR) and HER2. A concentration of ATP at the Km of the corresponding kinase was used for all assays. The mTOR (FRAP1), VEGF2, FGFR1, HER1 (EGFR) and HER2 assays used Z′-LYTE® technology. The PI3Kα assay used Adapta® technology. The symbol “inh %” as used herein generally refers to inhibition percentage.

PI3Kα = PI3Kα (Homo sapiens, UniProt P42336); assay: SelectScreen Profiling, Adapta kinase assay, PI3Kα; type: biochemical; conditions: 0.1 μM compound, ATP at Km, read-out: PI3Kα inh % @0.1 μM
[1] = test system: mammalian tumor cell lines such as PC-3, LNCAP, U87, Huh-7, HepG2 and MDA-MB-468; assay: Cell proliferation/survival MTT assay in tumor cell lines; type: cell-based; conditions: 5 days (120 h) culture; cell line not specified; read-out: IC50, inhibition of tumor cell growth (MTT)
Procedure: The cytotoxic or cytostatic activity of Formula I-III exemplary compounds was measured by establishing proliferating mammalian tumor cell lines such as PC-3, LNCAP, U87, Huh-7, HepG2 and MDA-MB-468 in a cell culture medium, adding a test compound, culturing the cells for a period of 5 days by measuring cell viability via MTT assays. Dose response data were obtained for each test compound and the degree of inhibition of tumor cell growth was expressed as an IC50 value. […] For example. For example, compounds of example 14, 15, 46,29, 45, 49, 122, 88, 54, 55, 58, 59, 63, 64, 66, 67, 68, 113, 86, 90.
PC-3 (or U87) cells were seeded in 96-well plates at low density (at 2,000 cells per well) in media supplemented with 10% FBS (growth media) and transferred to serum-free media (1% FBS) after 24 h. Designated concentrations of drug were added to each well. The cells were incubated for 120 h. At the end of drug exposure, 20 μL/well of MTT solution was added. After 4 h at 37° C. in a humidified 5% CO2 atmosphere, the absorbance at 490 nm was recorded by using a microplate reader. IC50 was calculated using GraphPad Prism version 5 for Windows. The curves were fit using a nonlinear regression model with a log (inhibitor) versus response formula.

[2] = Metabolic stability in human liver microsome (HLM); type: in vitro ADME; conditions: incubation with human liver microsome for 60 min
Procedure: (§1) Active mTOR inhibitors in enzymatic and/or cell-based assays herein were evaluated for pharmacokinetic properties. Preferable compounds are with pharmacokinetic properties of low clearance, long half-life and/or good oral bioavailability (Fpo). In vitro, selected example compounds were evaluated for metabolic stability by incubating with human liver microsome (HLM) for 60 min. Compounds that were metabolized slower (i.e. higher % remaining) are preferred. […] The more metabolic stable example compounds in the HLM assay were further evaluated for pharmacokinetic properties in vivo. In a representative experiment, selected example compounds were dosed to rats intravenously (IV, 5 mg/kg, 30% PEG400+30% PG+1% DMSO in saline) and orally (PO, 10 mg/kg, 2.4% DMSO+0.1% Tween80 in 0.5% CMC-Na), rat blood samples were taken at designed time points after dosing and analyzed for tested drug concentrations using LC-MS/MS. Pharmacokinetic parameters were derived from the time curve of drug concentrations.

[3] = Rat pharmacokinetic study (IV and PO); type: in vivo; conditions: for AUC(0-t) / Cmax / MRT / clearance / half-life / Tmax / bioavailability: blood; for bioavailability: PO 10 mg/kg vs IV 5 mg/kg, read-out: Fpo (oral bioavailability)
Procedure: as §1

PI3Kα, sequence (P42336 whole entry): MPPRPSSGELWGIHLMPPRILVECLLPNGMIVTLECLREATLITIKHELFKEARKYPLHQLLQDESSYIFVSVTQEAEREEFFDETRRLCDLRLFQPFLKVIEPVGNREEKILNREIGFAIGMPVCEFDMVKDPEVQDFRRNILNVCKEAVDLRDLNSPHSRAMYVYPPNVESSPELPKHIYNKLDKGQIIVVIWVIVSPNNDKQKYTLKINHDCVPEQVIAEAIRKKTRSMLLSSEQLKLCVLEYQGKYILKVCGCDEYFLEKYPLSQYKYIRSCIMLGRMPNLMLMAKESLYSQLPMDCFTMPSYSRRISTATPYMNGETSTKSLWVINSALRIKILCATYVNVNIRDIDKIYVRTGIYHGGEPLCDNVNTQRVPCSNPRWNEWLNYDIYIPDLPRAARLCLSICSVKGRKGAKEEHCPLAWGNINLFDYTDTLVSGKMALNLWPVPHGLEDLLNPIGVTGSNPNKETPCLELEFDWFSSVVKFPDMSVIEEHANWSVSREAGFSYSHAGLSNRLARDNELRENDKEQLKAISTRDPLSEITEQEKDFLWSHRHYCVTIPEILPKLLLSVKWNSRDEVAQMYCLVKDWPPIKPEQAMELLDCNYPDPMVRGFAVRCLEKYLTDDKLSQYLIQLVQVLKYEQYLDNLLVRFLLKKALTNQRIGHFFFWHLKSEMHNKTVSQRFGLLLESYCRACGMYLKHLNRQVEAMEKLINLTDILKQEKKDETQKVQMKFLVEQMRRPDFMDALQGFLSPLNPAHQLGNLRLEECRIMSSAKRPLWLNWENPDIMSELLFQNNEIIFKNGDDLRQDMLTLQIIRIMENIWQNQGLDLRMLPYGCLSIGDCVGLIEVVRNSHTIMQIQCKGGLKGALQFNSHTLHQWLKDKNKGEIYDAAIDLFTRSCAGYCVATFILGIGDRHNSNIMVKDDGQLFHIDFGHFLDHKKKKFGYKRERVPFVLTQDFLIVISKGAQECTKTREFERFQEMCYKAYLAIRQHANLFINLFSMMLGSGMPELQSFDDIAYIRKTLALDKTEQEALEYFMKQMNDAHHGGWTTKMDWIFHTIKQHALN
PI3Kα, sequence (P27986 whole entry partner): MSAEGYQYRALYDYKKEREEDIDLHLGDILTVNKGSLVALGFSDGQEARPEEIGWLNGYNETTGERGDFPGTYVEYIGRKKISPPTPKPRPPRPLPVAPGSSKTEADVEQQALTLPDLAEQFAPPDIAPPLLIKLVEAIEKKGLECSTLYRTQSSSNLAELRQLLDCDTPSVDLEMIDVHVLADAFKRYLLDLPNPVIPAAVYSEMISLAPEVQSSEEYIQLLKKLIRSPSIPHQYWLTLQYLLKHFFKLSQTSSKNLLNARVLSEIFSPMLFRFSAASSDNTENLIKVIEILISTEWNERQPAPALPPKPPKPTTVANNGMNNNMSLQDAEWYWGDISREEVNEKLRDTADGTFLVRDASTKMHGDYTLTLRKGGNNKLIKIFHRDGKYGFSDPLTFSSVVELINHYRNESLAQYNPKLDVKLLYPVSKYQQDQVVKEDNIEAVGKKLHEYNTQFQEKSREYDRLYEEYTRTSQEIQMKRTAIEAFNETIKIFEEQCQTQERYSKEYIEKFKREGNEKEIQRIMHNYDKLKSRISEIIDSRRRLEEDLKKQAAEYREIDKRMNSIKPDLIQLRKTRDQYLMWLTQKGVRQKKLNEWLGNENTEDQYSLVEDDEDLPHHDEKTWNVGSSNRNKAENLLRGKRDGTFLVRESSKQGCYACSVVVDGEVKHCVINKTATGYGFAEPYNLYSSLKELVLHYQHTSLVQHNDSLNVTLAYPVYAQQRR

`CCNC(=O)Nc1ccc(-c2nc(N3CCOC[C@H]3C)c3cccn3n2)cc1` [Example 4] showed an inhibition at 0.1 µM (mTOR (FRAP1)) of 72% and an inhibition at 0.1 µM (PI3Kα) of 10%.

With `C[C@@H]1COCCN1c1nc(-c2ccc(NC(=O)Nc3cccnc3)cc2)nn2cccc12` [Example 17] the inhibition at 0.1 µM (PI3Kα) was 25%.

With `O=C(Nc1ccncc1)Nc1ccc(-c2nc(N3CCOCC3)c3cccn3n2)cc1` [Example 18] the inhibition at 0.1 µM (PI3Kα) was -13%.

`CN1CCN(CCNC(=O)c2ccc(NC(=O)Nc3ccc(-c4nc(N5CCOCC5)c5cccn5n4)cc3)cc2)CC1` [Example 49] gave an IC50 [1] of less than 500 nM and an inhibition at 0.1 µM (mTOR (FRAP1)) of 88%.

With `O=C(Nc1ccc(C(=O)N2CCNCC2)cc1)Nc1ccc(-c2nc(N3CCOCC3)c3cccn3n2)cc1` [Example 56] the “metabolic stability in HLM” value [2] was “metabolically stable” and the inhibition at 0.1 µM (mTOR (FRAP1)) was 88%.

`CNC(=O)c1ccc(NC(=O)Nc2ccc(-c3nc(N4CCOCC4)c4cccn4n3)cc2)cc1F` [Example 61] showed an inhibition at 0.1 µM (mTOR (FRAP1)) of 71%.

In the case of `CC(C)(O)c1ccc2c(N3CCOCC3)nc(-c3ccc(NC(=O)Nc4cccnc4)cc3)nn12` [Example 63], the IC50 [1] is reported as less than 500 nM and the inhibition at 0.1 µM (mTOR (FRAP1)) is reported as 71%.

In the case of `CN(C)C1CCN(C(=O)c2ccc(NC(=O)Nc3ccc(-c4nc(N5CCOCC5)c5ccc(C(F)(F)F)n5n4)cc3)cc2)CC1` [Example 64], the “metabolic stability in HLM” value [2] is reported as “metabolically stable”, the IC50 [1] is reported as less than 500 nM and the inhibition at 0.1 µM (mTOR (FRAP1)) is reported as 62%.

With `O=C(Nc1ccc(C(=O)N2CC[C@@H](O)C2)cc1)Nc1ccc(-c2nc(N3CCOCC3)c3cccn3n2)cc1` [Example 67] the “metabolic stability in HLM” value [2] was “metabolically stable”, the IC50 [1] was less than 500 nM and the inhibition at 0.1 µM (mTOR (FRAP1)) was 87%.

Work on `O=C(Nc1ccc(C(=O)N2CC[C@H](O)C2)cc1)Nc1ccc(-c2nc(N3CCOCC3)c3cccn3n2)cc1` [Example 68] yielded an IC50 [1] of less than 500 nM and an inhibition at 0.1 µM (mTOR (FRAP1)) of 86%.

`CN(C)C1CN(C(=O)c2ccc(NC(=O)Nc3ccc(-c4nc(N5CCOCC5)c5cccn5n4)cc3)cc2)C1` [Example 86] gave an IC50 [1] of less than 500 nM and an inhibition at 0.1 µM (mTOR (FRAP1)) of 82%.

For `C[C@@H]1COCCN1c1nc(-c2ccc(NC(=O)Nc3ccc(C(=O)N4CC[C@@H](O)C4)cc3)cc2)nn2cccc12` [Example 88], the IC50 [1] was less than 500 nM.

With `C[C@@H]1COCCN1c1nc(-c2ccc(NC(=O)Nc3ccc(C(=O)N4CC[C@H](O)C4)cc3)cc2)nn2cccc12` [Example 89] the “metabolic stability in HLM” value [2] was “metabolically stable”.

For `CN(C)C1CCN(C(=O)c2ccc(NC(=O)Nc3ccc(-c4nc(N5CCOCC5)c5ccc(C(C)(C)O)n5n4)cc3)cc2)CC1` [Example 90], the IC50 [1] was less than 500 nM.

In the case of `O=C(Nc1ccc(-c2nc(N3CCOCC3)c3cccn3n2)cc1)Nc1ccc(CO)nc1` [Example 96], the “metabolic stability in HLM” value [2] is reported as “metabolically stable”.

In the case of `S=C(Nc1ccc(-c2nc(N3CCOCC3)c3cccn3n2)cc1)Nc1cccnc1` [Example 106], the “metabolic stability in HLM” value [2] is reported as “metabolically stable”, the CL ([3]; PO 10 mg/kg) is reported as 4.12 mL/min/kg and the AUC(0-t) ([3]; IV 5 mg/kg) is reported as 41500 ng·h/mL. It also gave a Cmax ([3]; IV 5 mg/kg) of 21200 ng/mL, an MRT ([3]; IV 5 mg/kg) of 1.67 h and a clearance ([3]; IV 5 mg/kg) of 2.03 mL/min/kg. It also gave a half-life ([3]; IV 5 mg/kg) of 1.42 h, an AUC(0-t) ([3]; PO 10 mg/kg) of 73400 ng·h/mL and a Cmax ([3]; PO 10 mg/kg) of 9990 ng/mL. For the same compound, the MRT ([3]; PO 10 mg/kg) was 5.68 h, the Tmax ([3]; PO 10 mg/kg) was 2.5 h and the half-life ([3]; PO 10 mg/kg) was 3.26 h. It also gave a bioavailability [3] of 89%.

In the case of `OCCNC(=S)Nc1ccc(-c2nc(N3CCOCC3)c3cccn3n2)cc1` [Example 113], the IC50 [1] is reported as less than 500 nM.

In the case of `O=C(NCCO)Nc1ccc(-c2nc(N3C[C@H]4CC[C@@H](C3)O4)c3cccn3n2)cc1` [Example 127], the “metabolic stability in HLM” value [2] is reported as “metabolically stable”, the CL ([3]; PO 10 mg/kg) is reported as 112.9 mL/min/kg and the AUC(0-t) ([3]; IV 5 mg/kg) is reported as 3420 ng·h/mL. The Cmax ([3]; IV 5 mg/kg) was 3380 ng/mL, the MRT ([3]; IV 5 mg/kg) was 1.3 h and the clearance ([3]; IV 5 mg/kg) was 24.4 mL/min/kg. It also gave a half-life ([3]; IV 5 mg/kg) of 1.47 h, an AUC(0-t) ([3]; PO 10 mg/kg) of 1400 ng·h/mL and a Cmax ([3]; PO 10 mg/kg) of 296 ng/mL. For the same compound, the MRT ([3]; PO 10 mg/kg) was 5.11 h, the Tmax ([3]; PO 10 mg/kg) was 0.417 h and the half-life ([3]; PO 10 mg/kg) was 3.29 h. The bioavailability [3] was 22%.

In the case of `CC(C)(C)C(=O)OCCNC(=O)Nc1ccc(-c2nc(N3CCOCC3)c3cccn3n2)cc1` [Example 128], the CL ([3]; PO 10 mg/kg) is reported as 25.05 mL/min/kg, the AUC(0-t) ([3]; PO 10 mg/kg) is reported as 7290 ng·h/mL and the Cmax ([3]; PO 10 mg/kg) is reported as 1520 ng/mL. It also gave an MRT ([3]; PO 10 mg/kg) of 3.45 h, a Tmax ([3]; PO 10 mg/kg) of 1.67 h and a half-life ([3]; PO 10 mg/kg) of 1.9 h. For the same compound, the bioavailability [3] was 22%.

Compound `CS(=O)(=O)N1CCN(Cc2cc3nc(-c4cccc5[nH]ncc45)nc(N4CCOCC4)c3s2)CC1` [GDC0941, reference compound] has an inhibition at 0.1 µM (mTOR (FRAP1)) of 6%.
